Experimental data: patent US9630949B2, “Oxoazetidine derivatives, process for the preparation thereof and use thereof in human medicine and in cosmetics” (GALDERMA RESEARCH & DEVELOPMENT, priority 2008, dated 2017)

Key:
hMC1R = hMC1R (Homo sapiens (Human), UniProt Q01726); assay: Transactivation test: melanocortin receptors (pCRE-Luc luciferase reporter), hMC1R; assay type: cell-based; conditions: HEK293 transfected with pCRE-Luc and hMC1R; products tested alone (agonist), 6 h incubation; % activity vs NDP-MSH 10 nM; IA: inactive
Chain of hMC1R (Q01726 whole entry): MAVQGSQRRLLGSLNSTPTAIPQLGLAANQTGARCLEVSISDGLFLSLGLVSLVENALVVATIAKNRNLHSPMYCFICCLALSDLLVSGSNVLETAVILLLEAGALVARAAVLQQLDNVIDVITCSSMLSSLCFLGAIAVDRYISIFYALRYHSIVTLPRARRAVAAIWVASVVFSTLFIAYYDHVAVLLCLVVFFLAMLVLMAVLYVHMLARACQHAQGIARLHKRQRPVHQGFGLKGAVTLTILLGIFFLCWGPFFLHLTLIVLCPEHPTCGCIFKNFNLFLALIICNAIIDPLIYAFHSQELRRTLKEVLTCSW
Procedure: (§1) Transactivation Test: Melanocortin Receptors
(§2) HEK293 lines are transfected with the pCRE-Luc and hMC1R, hMC3R, hMC4R or hMC5R vectors. The cells are cultured at 37° C., 5% CO2, in DMEM medium supplemented with 10% of foetal calf serum.
(§3) In the presence of an activator (agonist), the melanocortin receptor will activate the cAMP pathway which, via the CRE-Luc vector, will result in the synthesis of luciferase. After the addition of a lysis buffer containing a luminescent substrate for luciferase, it will be possible to measure the luminescence proportional to the degree of activation or of inhibition of the receptor.
(§4) The products are solubilized at 10 mM in DMSO. They are tested in the form of dose-response at a final DMSO concentration of 0.1%. The range comprising 10 points and one zero begins at 10 μM with 4-fold dilutions. For testing agonists, the products are tested alone. For determining the behaviour of antagonists, the products of interest are tested in the presence of 1 nM NDP-MSH (reference agonist). The cells are seeded at a rate of 5000 cells per well (384 well plate) in serum-free DMEM medium, and incubated overnight at 37° C., 5% CO2.
(§5) The products and the reference ligand (NDP-MSH) are added the following day, and the plates are again incubated for 6 h at 37° C., 5% CO2. After the addition of lysis buffer containing luciferin, the plates are read on a Top-Count instrument. The results are standardized as % activity using the 100% (cells+NDP-MSH at 10 nM) and 0% (cells alone) controls. An EC50 is calculated for each product using the XLFit software. The results are given in nM.

hMC4R = hMC4R (Homo sapiens (Human), UniProt P32245); assay: Transactivation test: melanocortin receptors (pCRE-Luc luciferase reporter), hMC4R; assay type: cell-based; conditions: HEK293 transfected with pCRE-Luc and hMC4R; products tested alone (agonist), 6 h incubation; % activity vs NDP-MSH 10 nM; IA: inactive
Chain of hMC4R (P32245 whole entry): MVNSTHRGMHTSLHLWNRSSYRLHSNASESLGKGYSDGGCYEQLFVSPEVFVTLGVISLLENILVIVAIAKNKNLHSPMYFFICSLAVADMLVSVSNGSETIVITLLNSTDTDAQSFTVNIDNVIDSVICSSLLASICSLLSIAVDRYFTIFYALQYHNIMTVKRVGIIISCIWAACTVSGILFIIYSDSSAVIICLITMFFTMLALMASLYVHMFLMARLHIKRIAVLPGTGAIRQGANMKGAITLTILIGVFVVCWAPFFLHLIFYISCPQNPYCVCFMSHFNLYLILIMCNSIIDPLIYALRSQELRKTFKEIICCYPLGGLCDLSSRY
Procedure: as §1, §2, §3, §4, §5

Structure (SMILES) | EC50 (hMC1R) [nM] | EC50 (hMC4R) [nM]
CCCCOC1(c2cccc(F)c2)CN(C(=O)[C@H](Cc2ccc(OC)cc2)NC(=O)[C@H](Cc2c[nH]cn2)NC(=O)c2ccccc2)C1 [Compound 9, N-[(S)-1-[(S)-2-[3-butoxy-3-(3-fluorophenyl)azetidin-1-yl]-1-(4-methoxybenzyl)-2-oxoethylcarbamoyl]-2-(1H-imidazol-4-yl)ethyl]benzamide] | 120 | 1000
COc1ccc(C[C@H](NC(=O)CCc2c[nH]cn2)C(=O)N2CC(O)(c3ccccc3C)C2)cc1 [Compound 11, N-[(S)-2-(3-hydroxy-3-o-tolylazetidin-1-yl)-1-(4-methoxybenzyl)-2-oxoethyl]-3-(1H-imidazol-4-yl)propionamide] | 4000 | 8000
CCOC1(c2ccccc2C)CN(C(=O)[C@H](Cc2ccc(OC)cc2)NC(=O)CCc2c[nH]cn2)C1 [Compound 13, N-[(S)-2-(3-ethoxy-3-o-tolylazetidin-1-yl)-1-(4-methoxybenzyl)-2-oxoethyl]-3-(1H-imidazol-4-yl)propionamide] | 2000 | 15000
COc1ccc(C[C@H](NC(=O)CCc2c[nH]cn2)C(=O)N2CC(OCC3CC3)(c3ccccc3C)C2)cc1 [Compound 14, N-[(S)-2-(3-cyclopropylmethoxy-3-o-tolylazetidin-1-yl)-1-(4-methoxybenzyl)-2-oxoethyl]-3-(1H-imidazol-4-yl)propionamide] | 2000 | 15000
CCCCOC1(c2ccccc2C)CN(C(=O)[C@@H](Cc2ccc(OC)cc2)NC(=O)CCc2c[nH]cn2)C1 [Compound 15, N-[(R)-2-(3-butoxy-3-o-tolylazetidin-1-yl)-1-(4-methoxybenzyl)-2-oxoethyl]-3-(1H-imidazol-4-yl)propionamide] | 120 | 4000
CCCCOC1(c2ccccc2C)CN(C(=O)[C@H](Cc2ccc(OC)cc2)NC(=O)CCc2c[nH]cn2)C1 [Compound 16, N-[(S)-2-(3-butoxy-3-o-tolylazetidin-1-yl)-1-(4-methoxybenzyl)-2-oxoethyl]-3-(1H-imidazol-4-yl)propionamide] | 2000 | 15000
CCOC1(c2ccccc2C)CN(C(=O)[C@@H](Cc2ccc(OC)cc2)NC(=O)CCc2c[nH]cn2)C1 [Compound 17, N-[(R)-2-(3-ethoxy-3-o-tolylazetidin-1-yl)-1-(4-methoxybenzyl)-2-oxoethyl]-3-(1H-imidazol-4-yl)propionamide] | 250 | 8000
CCCCOC1(c2ccccc2)CN(C(=O)[C@@H](CC2CCCCC2)NC(=O)CCc2c[nH]cn2)C1 [Compound 18, N-[(R)-2-(3-butoxy-3-phenylazetidin-1-yl)-1-cyclohexylmethyl-2-oxoethyl]-3-(1H-imidazol-4-yl)propionamide] | 8000 | 8000
CCCCOC1(c2ccccc2)CN(C(=O)[C@@H](Cc2ccc(Cl)cc2Cl)NC(=O)CCc2c[nH]cn2)C1 [Compound 19, N-[(R)-2-(3-butoxy-3-phenylazetidin-1-yl)-1-(2,4-dichlorobenzyl)-2-oxoethyl]-3-(1H-imidazol-4-yl)propionamide] | 2000 | 120
COc1ccc(C[C@@H](NC(=O)CCc2c[nH]cn2)C(=O)N2CC(OCC3CC3)(c3ccccc3C)C2)cc1 [Compound 20, N-[(R)-2-(3-cyclopropylmethoxy-3-o-tolylazetidin-1-yl)-1-(4-methoxybenzyl)-2-oxoethyl]-3-(1H-imidazol-4-yl)propionamide] | 120 | 4000
CCCOC1(c2ccccc2C)CN(C(=O)[C@@H](Cc2ccc(OC)cc2)NC(=O)CCc2c[nH]cn2)C1 [Compound 22, N-[(R)-1-(4-methoxybenzyl)-2-oxo-2-(3-propoxy-3-o-tolylazetidin-1-yl)ethyl]-3-(1H-imidazol-4-yl)propionamide] | 120 | 10000
CCCCOC1(c2ccc(F)cc2)CN(C(=O)[C@@H](Cc2ccc(OC)cc2)NC(=O)CCc2c[nH]cn2)C1 [Compound 23, N-[(R)-2-[3-butoxy-3-(4-fluorophenyl)azetidin-1-yl]-1-(4-methoxybenzyl)-2-oxoethyl]-3-(1H-imidazol-4-yl)propionamide] | 60 | 1000
CCCCCOC1(c2ccccc2C)CN(C(=O)[C@@H](Cc2ccc(OC)cc2)NC(=O)CCc2c[nH]cn2)C1 [Compound 24, N-[(R)-1-(4-methoxybenzyl)-2-oxo-2-(3-pentyloxy-3-o-tolylazetidin-1-yl)ethyl]-3-(1H-imidazol-4-yl)propionamide] | 250 | 4000
CCCCCCOC1(c2ccccc2C)CN(C(=O)[C@@H](Cc2ccc(OC)cc2)NC(=O)CCc2c[nH]cn2)C1 [Compound 25, N-[(R)-2-(3-hexyloxy-3-o-tolylazetidin-1-yl)-1-(4-methoxybenzyl)-2-oxoethyl]-3-(1H-imidazol-4-yl)propionamide] | 1000 | 8000
CCCCCC1(c2ccccc2)CN(C(=O)[C@@H](Cc2ccc(OC)cc2)NC(=O)CCc2c[nH]cn2)C1 [Compound 26, N-[(R)-1-(4-methoxybenzyl)-2-oxo-2-(3-pentyl-3-phenylazetidin-1-yl)ethyl]-3-(1H-imidazol-4-yl)propionamide] | 500 | 4000
CCCCC1(c2ccccc2)CN(C(=O)[C@@H](Cc2ccc(OC)cc2)NC(=O)CCc2c[nH]cn2)C1 [Compound 27, N-[(R)-2-(3-butyl-3-phenylazetidin-1-yl)-1-(4-methoxybenzyl)-2-oxoethyl]-3-(1H-imidazol-4-yl)propionamide] | 500 | 8000
COc1ccc(C[C@@H](NC(=O)CCc2c[nH]cn2)C(=O)N2CC(OCC3CC3)(c3ccccc3)C2)cc1 [Compound 28, N-[(R)-2-(3-cyclopropylmethoxy-3-phenylazetidin-1-yl)-1-(4-methoxybenzyl)-2-oxoethyl]-3-(1H-imidazol-4-yl)propionamide] | 1000 | 8000
CCCCOC1(c2ccc(F)cc2)CN(C(=O)[C@@H](Cc2cccc(F)c2)NC(=O)CCc2c[nH]cn2)C1 [Compound 31, N-[(R)-2-[3-butoxy-3-(4-fluorophenyl)azetidin-1-yl]-1-(3-fluorobenzyl)-2-oxoethyl]-3-(1H-imidazol-4-yl)propionamide] | 500 | 4000
CCCCOC1(c2ccc(F)cc2)CN(C(=O)[C@@H](Cc2ccc(F)cc2)NC(=O)CCc2c[nH]cn2)C1 [Compound 32, N-[(R)-2-[3-butoxy-3-(4-fluorophenyl)azetidin-1-yl]-1-(4-fluorobenzyl)-2-oxoethyl]-3-(1H-imidazol-4-yl)propionamide] | 1000 | 4000
CCCCOC1(c2ccccc2)CN(C(=O)[C@@H](Cc2ccc(F)cc2)NC(=O)CCc2c[nH]cn2)C1 [Compound 33, N-[(R)-2-(3-butoxy-3-phenylazetidin-1-yl)-1-(4-fluorobenzyl)-2-oxoethyl]-3-(1H-imidazol-4-yl)propionamide] | 500 | 2000
CCCCOC1(c2ccc(F)cc2)CN(C(=O)[C@@H](Cc2ccccc2)NC(=O)CCC2=NCC=N2)C1 [Compound 34, N-{(R)-1-benzyl-2-[3-butoxy-3-(4-fluoro-phenyl)azetidin-1-yl]-2-oxoethyl}-3-(4H-imidazol-2-yl)propionamide] | 1000 | 2000
CCCCOC1(c2ccccc2)CN(C(=O)[C@@H](Cc2ccccc2)NC(=O)CCc2c[nH]cn2)C1 [Compound 35, N-[(R)-1-benzyl-2-(3-butoxy-3-phenylazetidin-1-yl)-2-oxoethyl]-3-(1H-imidazol-4-yl)propionamide] | 500 | 2000
CCCCOC1(c2ccccc2)CN(C(=O)[C@@H](Cc2ccc(OC)cc2)NC(=O)CCc2c[nH]cn2)C1 [Compound 36, N-[(R)-2-(3-butoxy-3-phenylazetidin-1-yl)-1-(4-methoxybenzyl)-2-oxoethyl]-3-(1H-imidazol-4-yl)propionamide] | 1000 | 3000
CCCCCC1(c2ccccc2C)CN(C(=O)[C@@H](Cc2ccc(OC)cc2)NC(=O)CCc2c[nH]cn2)C1 [Compound 37, N-[(R)-1-(4-methoxybenzyl)-2-oxo-2-(3-pentyl-3-o-tolylazetidin-1-yl)ethyl]-3-(1H-imidazol-4-yl)propionamide] | 250 | 2000
CCCCOC1(c2ccccc2C)CN(C(=O)[C@@H](Cc2ccc(OC)cc2)NC(=O)CCc2c[nH]nn2)C1 [Compound 39, N-[(R)-2-(3-butoxy-3-o-tolylazetidin-1-yl)-1-(4-methoxybenzyl)-2-oxoethyl]-3-(1H-[1,2,3]triazol-4-yl)propionamide] | 8000 | 2000
